Data: US20240115541A1, “METHOD FOR TREATING CEREBRAL APOPLEXY AND HYPERBILIRUBINEMIA BY COMPOUND FOR INHIBITING COMBINATION OF BILIRUBIN AND TRPM2 CHANNEL” (SHANGHAI SIXTH PEOPLE'S HOSPITAL, priority 2022, published 2024)

What was measured:
[1] = biological target: T1, K928A/D1069A double mutant TRPM2 channel (Homo sapiens, UniProt O94759, D1069A/K928A); assay: Whole-cell patch-clamp recording, K928A/D1069A double mutant in HEK293T cells; assay type: cell-based; settings: intracellular ADPR 500 μM
T1 construct: expressed in transfected cells; host or cells: HEK293T cells, Lipofectamine 3000, GFP cDNA co-transfected as a separate marker
T1 sequence (O94759 whole entry K928A/D1069A): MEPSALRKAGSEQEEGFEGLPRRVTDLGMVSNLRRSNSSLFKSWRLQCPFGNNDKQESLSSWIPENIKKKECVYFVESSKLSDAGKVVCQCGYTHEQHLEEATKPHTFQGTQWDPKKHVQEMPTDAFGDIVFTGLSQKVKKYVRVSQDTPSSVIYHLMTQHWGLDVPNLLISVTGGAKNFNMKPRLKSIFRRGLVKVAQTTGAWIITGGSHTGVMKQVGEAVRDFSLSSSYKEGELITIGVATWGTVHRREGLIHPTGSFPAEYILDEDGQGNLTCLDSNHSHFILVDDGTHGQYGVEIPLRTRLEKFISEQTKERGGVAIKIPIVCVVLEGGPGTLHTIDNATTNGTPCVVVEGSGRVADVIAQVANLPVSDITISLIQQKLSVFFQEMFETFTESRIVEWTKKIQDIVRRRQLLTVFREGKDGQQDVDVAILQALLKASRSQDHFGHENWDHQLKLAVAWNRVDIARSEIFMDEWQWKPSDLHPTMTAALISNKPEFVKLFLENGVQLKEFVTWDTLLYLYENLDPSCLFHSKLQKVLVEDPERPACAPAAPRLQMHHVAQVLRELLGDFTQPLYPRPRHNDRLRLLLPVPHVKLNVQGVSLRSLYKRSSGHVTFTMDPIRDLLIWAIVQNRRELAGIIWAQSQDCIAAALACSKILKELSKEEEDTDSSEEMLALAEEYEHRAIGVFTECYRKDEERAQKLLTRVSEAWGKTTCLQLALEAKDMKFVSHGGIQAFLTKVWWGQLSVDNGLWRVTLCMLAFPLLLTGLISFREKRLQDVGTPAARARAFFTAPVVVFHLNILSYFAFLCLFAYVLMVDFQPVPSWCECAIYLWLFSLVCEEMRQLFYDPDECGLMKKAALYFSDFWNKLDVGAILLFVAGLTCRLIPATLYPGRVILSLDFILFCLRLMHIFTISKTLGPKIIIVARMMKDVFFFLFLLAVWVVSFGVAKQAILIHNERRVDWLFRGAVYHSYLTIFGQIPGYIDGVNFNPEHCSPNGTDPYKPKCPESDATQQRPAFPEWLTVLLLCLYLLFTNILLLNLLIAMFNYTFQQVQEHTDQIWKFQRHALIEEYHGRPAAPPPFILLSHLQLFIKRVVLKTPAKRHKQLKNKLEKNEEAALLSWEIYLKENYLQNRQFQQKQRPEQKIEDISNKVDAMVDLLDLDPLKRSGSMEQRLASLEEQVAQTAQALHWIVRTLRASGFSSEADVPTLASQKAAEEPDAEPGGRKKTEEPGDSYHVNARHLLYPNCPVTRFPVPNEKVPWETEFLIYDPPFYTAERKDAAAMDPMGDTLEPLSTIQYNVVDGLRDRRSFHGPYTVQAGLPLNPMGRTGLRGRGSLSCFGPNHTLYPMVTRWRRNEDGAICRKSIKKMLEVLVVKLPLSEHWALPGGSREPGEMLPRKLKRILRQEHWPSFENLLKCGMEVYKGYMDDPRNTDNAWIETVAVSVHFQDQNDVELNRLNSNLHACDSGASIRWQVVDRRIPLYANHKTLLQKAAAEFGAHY
Method: (§1) 3. Cell culture and transfection: Human embryonic kidney 293 (HEK293) cells with tetracycline-inducible expression of human TRPM2 channel (hTRPM2) were cultured in a mixed medium containing DMEM/F-12 and 10% fetal bovine serum as well as blasticidin (50 μg/ml) and zeocin (0.4 mg/ml). The expression of hTRPM2 was induced by substituting […] (1 μg/ml) 24-48 hours before use. TRPM2 channel mutants were transiently expressed in HEK293T cells by transfection with using Lipofectamine 3000. Briefly, HEK293T cells were transiently transfected with cDNAs encoding the mutant hTRPM2 channel. The cDNA for GFP was co-transfected as a marker for identification of the transfected cells for electrophysiological experiments 16-24 hours after transfection. […]
4. Whole-cell and ingle-channel patch-clamp recording: the coverslips were placed in a culture dish (35×35 mm, Sorfa) containing HEPES based extracellular solution (ECS) and recorded by patch-clamp technique. […] Each coverslip was recorded only once with different drug exposures. […] The excised patches were voltage-clamped from −80 mV to +80 mV (in 20 mV increasement) to generate the current-voltage (I-V) relationship of single channel currents from which their main conductance was calculated from the slope by linear regression of the mean current amplitude at different potentials. […]

[2] = biological target: T2, human TRPM2 channel (hTRPM2) (Homo sapiens, UniProt O94759); assay: Single-channel (outside-out) patch-clamp recording, HEK-hTRPM2 cells; assay type: cell-based; settings: FFA applied after bilirubin
T2 construct: expressed in transfected cells; host or cells: HEK293 cells with tetracycline-inducible expression
T2 sequence (O94759 whole entry): as the sequence (O94759 whole entry K928A/D1069A) above, with A928K, A1069D counted along it
Method: 1. Extracellular solution (in mM): 145 NaCl, 5.6 KCl, 2 MgCl2, 1.2 CaCl2, 10 HEPES, 10 glucose and pH adjusted to 7.4 by NaOH (290-320 mOsm).
2. Pipette solution contains (in mM): 147 NaCl, 1 MgCl2, 1 EGTA and 10 HEPES with pH 7.4 and osmolality 290-320 mOsm.
as §1, with “3000.” for “3000. Briefly, HEK293T cells were transiently transfected with cDNAs encoding the mutant hTRPM2 channel. The cDNA for GFP was co-transfected as a marker for identification of the transfected cells for electrophysiological experiments 16-24 hours after transfection.”
4. Whole-cell and ingle-channel patch-clamp recording: the coverslips were placed in a culture dish (35×35 mm, Sorfa) containing HEPES based extracellular solution (ECS) and recorded by patch-clamp technique. […] Each coverslip was recorded only once with different drug exposures. […] The excised patches were voltage-clamped from −80 mV to +80 mV (in 20 mV increasement) to generate the current-voltage (I-V) relationship of single channel currents from which their main conductance was calculated from the slope by linear regression of the mean current amplitude at different potentials.

[3] = system: cortical neurons in adult Trpm2+/+ brain slices; settings: mouse, 1 h
Method: In this assay, surviving and dead cortical neurons were labeled with calcein-am and propidium-iodide (PI), respectively (FIG. 4K), the specific process was as follows:
Trpm2^+/+ mice aged 4-8 weeks were anesthetized by intraperitoneal injection of 1% pentobarbital (55 mg/kg). The brain tissue of the mice was then acutely isolated, and brain slices with a thickness of 150 μm were obtained using a vibratome.
The brain slices were incubated with bilirubin (Bil) and bilirubin+A23 (Bil+A23) for 1 hour at 37° C., adding calcein-am (1 μM) and PI (2 μM) for the last 15 minutes, and then washed for three times before being fixed.
When the staining was completed, the cells were fixed with 4% paraformaldehyde in a dark container for 40 minutes, and finally confocal imaging was performed. Cell counts were performed using the software of Image-J to calculate the death rate.

Nc1ncnc2c1ncn2[C@@H]1O[C@H](COP(=O)(O)OP(=O)(O)OC[C@H]2OC(O)[C@H](O)[C@@H]2O)[C@@H](O)[C@H]1O (stereo partly drawn) [ADPR, ADP-ribose]
activation of K928A/D1069A double mutant currents [1]: perfectly retained the agonist capacity

O=C(O)c1ccccc1Nc1cccc(C(F)(F)F)c1 [FFA, flufenamic acid]
effect on bilirubin-increased opening probability (Po) [2]: reversed

C=CC1=C(C)/C(=C/c2[nH]c(Cc3[nH]c(/C=C4\NC(=O)C(C)=C4C=C)c(C)c3CCC(=O)O)c(CCC(=O)O)c2C)NC1=O [bilirubin]
mortality of cortical neurons [3]: 60.84±2.13%
